Measurements from patent US12419891B2, “Compositions for the treatment of pathogenic- and/or chemical-induced lung injury and for the treatment of cancer and methods of using same” (Duke University, priority 2019, dated 2025).

What was measured:
[1] = tested on: mice exposed to S. aureus; assay: mouse model of pneumonia induced by nasal insufflation of S. aureus; assay type: in vivo
Procedure: Bacteria. S. aureus (Ssp. aureus, No. 25923; American Type Culture Collection) was grown as previously described (Suliman H B et al. (2017) Mitochondrial quality control in alveolar epithelial cells damaged by S. aureus pneumonia in mice. American journal of physiology. Lung cellular and molecular physiology 313(4):L699-L709). Dilutions of 5×10^8 CFU were used for mouse experiments, and dilutions of 1×10^8 CFU were used for cell culture experiments. S. pneumoniae (serotype 19, No. 49619; American Type Culture Collection) was grown as previously described (Gomez J C, et al. (2016) Journal of immunology 197(7):2864-2879). Dilutions of 6×10^5 CFU were used for mouse experiments.
CC10 (Scgb1a1)-CreERT; Rosa26R-CAG-farnesylated GFP (Rosa26-fGFP) and SPC (Sftpc)-CreERT2; Rosa26-tdTomato mice were kindly provided by Dr. Mark Onaitis and generated by Dr. Brigid Hogan at Duke University and have been previously described (Rawlins E L, et al. (2009) Cell stem cell 4(6):525-534, Xu X, et al. (2012) Proc Natl Acad Sci USA 109(13):4910-4915). These mice were crossed with Abl1^flox/flox mice (Moresco E M, et al. (2005) J Neurosci 25(26):6105-6118) into a C57BL/6 genetic background. Sox2^tmHoch/J mice (referred to as SOX2-eGFP mice in the text) were purchased from the Jackson Laboratory. Gt(Rosa) 26Sor^tm9(EGFP/Rpl10z)Amc/J (referred to as L10-eGFP in the text) mice were purchased from the Jackson Laboratory and were crossed to CC10-CreERT; Abl1^flox/flox mice into a C57BL/6 genetic background for the TRAP experiments. To induce expression of Cre-recombinase for both TRAP experiments and lineage tracing experiments, 8to 20-week-old male and female mice were injected intraperitoneally four times every other day with 0.25 mg/g body weight Tamoxifen (Sigma-T5648) in corn oil (Spectrum-CO136). Exposure to S. aureus was initiated 15 days after the last dose of Tamoxifen. Alternatively, mice were inoculated with purified Adenovirus5-CC10-Cre virus obtained from the University of Iowa Viral Vector Core Facility and generated by Dr. Anton Berns (Netherlands Cancer Institute). 10 μL of stock virus solution was mixed in 30 μL of Minimum Essential Medium and delivered intranasally twice, three days apart, three weeks prior to induction of S. aureus pneumonia. Mice were anesthetized using 0.3 mg xylazine and […] ketamine intraperitoneally prior to intranasal inoculation with a 50 μL dilution of 5×10^8 S. aureus. The mice were monitored daily for weight loss and signs of respiratory distress and euthanized in an isofluorane chamber at days 0, 1, 2, and 3 after inoculation. All experiments were performed under the Duke University IACUC approved protocols: A098-16-04 and A130-16-06. Male and female mice at different ages (8 to 20 weeks old) were evaluated for differential response to drug (Abl kinase inhibitors and tamoxifen) and/or injury, and no significant effects of age and gender were observed.
Inhibitors. GNF5 (N-(2-Hydroxyethyl)-3-(6-(4-(trifluoromethoxy)phenylamino)pyrimidin-4-yl)benzamide) was synthesized at the Duke University's Small Molecule Synthesis Facility, and validated by LC-MS and 1H-NMR/FT-IR spectra and with cell-based assays that confirm potencies and cell signaling inhibitory activities. For in vivo experiments, GNF5 was prepared in a suspension with 0.5% methylcellulose and 0.5% Tween-80 at a concentration of 10 mg/mL, and mice were treated with either 20 mg/kg, 40 mg/kg, or 100 mg/kg b.i.d. via oral gavage.
Bronchoalveolar lavage preparation and assays. Bronchoalveolar lavage (BAL) fluid was collected immediately after euthanasia three days after exposure to S. aureus as previously described (Suliman H B, et al. (2017) Lung cellular and molecular physiology 313(4):L699-L709). Bilateral BAL was performed using two 1 mL aliquots of sterile PBS with approximately 75-80% retrieval per mouse. […]

Abl kinases = settings: Zhang J. et al. (2010) Nature 463:501-506; cited from earlier work

O=C(NCCO)c1cccc(-c2cc(Nc3ccc(OC(F)(F)F)cc3)ncn2)c1 [GNF5, N-(2-Hydroxyethyl)-3-(6-(4-(trifluoromethoxy)phenylamino)pyrimidin-4-yl)benzamide]
activity and appearance of mice ([1]; 24 h after injury, vs vehicle control-treated mice): active and exhibited a healthy appearance | lung injury in lung tissue sections (H&E) ([1]; 72 hours post-infection, treatment started 1 h after insufflation): significant decrease in lung injury | proportion of GFP+ (Scgb1a1 driver) SPC+ cells ([1]; CC10-CreER, Rosa26-fGFP mice, three days after injury, vs vehicle): significant increase | proportion of SOX2+ SPC+ cells expanding from bronchioles into lung parenchyma ([1]; SOX2-eGFP mice, 100 mg/kg b.i.d. oral gavage from 24 h before insufflation, three days after injury, vs vehicle): dramatic increase | alveolar damage (loss of alveolar area/volume compared to uninfected mice) ([1]; SPC-CreERT2, Rosa26-tdTomato mice, 3 days after injury, vs Abl1 wt or fl/fl mice): reduced damage | tdTomato+, RAGE+ (Type I) cells derived from tdTomato+, SPC+, RAGE- (Type II) cells ([1]; SPC-CreERT2, Rosa26-tdTomato mice, three days after injury): detected at sites of damage only in mice treated with GNF5 | proportion of tdTomato+ (Sftpc driver) RAGE+ Type I AECs ([1]; SPC-CreERT2, Rosa26-tdTomato mice, vs untreated wild-type and Abl1 knockout): increase in the proportion | SPC expression in SCGB1A1+ cells within the bronchioles ([1]; after injury): enhanced SPC expression | BAL protein concentration ([1]; day 3 post-infection, treatment started 24 hours after injury (Post)): significant reduction in protein concentration | BAL protein concentration ([1]; day 3 post-infection, treatment started 24 hours prior to injury (Pre)): significant reduction in protein concentration | recovery of alveolar epithelium (RAGE staining) ([1]; day 3 post-infection, vs control mice): recovered more rapidly | recovery of mice after injury ([1]; two doses, 1 hour and 16 hours after injury, evaluated after 24 hours, vs vehicle): sufficient to promote recovery after 24 hours | selectivity versus other protein kinases (Abl kinases): does not inhibit other protein kinases
